Experiment: xn = mol fraction of the nth substance listed

CCOC(=O)c1ccccc1 + CCCCCCCCCC
101 kPa
Conditions | viscosity [mPa·s]
298.15 K, x2 = 0.0396 | 1.837
298.15 K, x2 = 0.1121 | 1.655
298.15 K, x2 = 0.151 | 1.566
298.15 K, x2 = 0.2285 | 1.42
298.15 K, x2 = 0.2637 | 1.355
298.15 K, x2 = 0.3109 | 1.289
298.15 K, x2 = 0.4026 | 1.176
298.15 K, x2 = 0.4449 | 1.136
298.15 K, x2 = 0.4949 | 1.088
298.15 K, x2 = 0.5326 | 1.056
298.15 K, x2 = 0.5928 | 1.011
298.15 K, x2 = 0.6401 | 0.982
298.15 K, x2 = 0.6988 | 0.947
298.15 K, x2 = 0.812 | 0.894
298.15 K, x2 = 0.8703 | 0.875
298.15 K, x2 = 0.9276 | 0.86
308.15 K, x2 = 0.0574 | 1.521
308.15 K, x2 = 0.0864 | 1.466
308.15 K, x2 = 0.1337 | 1.383
308.15 K, x2 = 0.1677 | 1.329
308.15 K, x2 = 0.1997 | 1.279
308.15 K, x2 = 0.2471 | 1.215
308.15 K, x2 = 0.2846 | 1.165
308.15 K, x2 = 0.3332 | 1.109
308.15 K, x2 = 0.3766 | 1.065
308.15 K, x2 = 0.4181 | 1.024
308.15 K, x2 = 0.4647 | 0.985
308.15 K, x2 = 0.5144 | 0.947
308.15 K, x2 = 0.5655 | 0.913
308.15 K, x2 = 0.6123 | 0.885
308.15 K, x2 = 0.6663 | 0.854
308.15 K, x2 = 0.7228 | 0.828
308.15 K, x2 = 0.7857 | 0.803
308.15 K, x2 = 0.8405 | 0.784
308.15 K, x2 = 0.9073 | 0.764
318.15 K, x2 = 0.0323 | 1.298
318.15 K, x2 = 0.07 | 1.235
318.15 K, x2 = 0.1012 | 1.188
318.15 K, x2 = 0.1446 | 1.128
318.15 K, x2 = 0.1842 | 1.078
318.15 K, x2 = 0.2269 | 1.027
318.15 K, x2 = 0.2679 | 0.984
318.15 K, x2 = 0.3143 | 0.939
318.15 K, x2 = 0.3561 | 0.903
318.15 K, x2 = 0.4045 | 0.866
318.15 K, x2 = 0.4499 | 0.835
318.15 K, x2 = 0.5021 | 0.803
318.15 K, x2 = 0.5496 | 0.777
318.15 K, x2 = 0.6035 | 0.752
318.15 K, x2 = 0.6545 | 0.73
318.15 K, x2 = 0.7126 | 0.708
318.15 K, x2 = 0.7674 | 0.69
318.15 K, x2 = 0.8289 | 0.674
318.15 K, x2 = 0.8862 | 0.661

CC1CCCCC1 + CCCCCCCC
viscosity [mPa·s], 101 kPa
Conditions | 293.15 K | 298.15 K | 303.15 K | 308.15 K
x1 = 0.0401 | 0.5414 | 0.5075 | 0.482 | –
x1 = 0.1044 | – | 0.524 | 0.496 | 0.468
x1 = 0.1998 | 0.5583 | 0.5193 | 0.4944 | –
x1 = 0.2066 | – | 0.535 | 0.504 | 0.474
x1 = 0.2801 | 0.5689 | 0.5283 | 0.5018 | –
x1 = 0.3045 | – | 0.543 | 0.512 | 0.481
x1 = 0.3514 | 0.5781 | 0.5367 | 0.5067 | –
x1 = 0.4068 | – | 0.557 | 0.525 | 0.493
x1 = 0.4282 | 0.5879 | 0.5477 | 0.5161 | –
x1 = 0.5043 | – | 0.57 | 0.537 | 0.504
x1 = 0.6015 | – | 0.586 | 0.552 | 0.518
x1 = 0.6051 | 0.6189 | 0.5761 | 0.5389 | –
x1 = 0.6759 | 0.634 | 0.5912 | 0.5529 | –
x1 = 0.7015 | – | 0.603 | 0.567 | 0.532
x1 = 0.7572 | 0.6552 | 0.6123 | 0.5712 | –
x1 = 0.8023 | – | 0.624 | 0.587 | 0.55
x1 = 0.8382 | 0.6791 | 0.6323 | 0.5918 | –
x1 = 0.8984 | – | 0.646 | 0.607 | 0.568
x1 = 0.9197 | 0.7023 | 0.6539 | 0.6124 | –
x2 = 0.0861 | – | 0.655 | – | –
x2 = 0.1756 | – | 0.633 | – | –
x2 = 0.3246 | – | 0.602 | – | –
x2 = 0.4674 | – | 0.577 | – | –
x2 = 0.6154 | – | 0.559 | – | –
x2 = 0.7785 | – | 0.526 | – | –
x2 = 0.7797 | – | 0.535 | – | –

CCOC(=O)c1ccccc1 + CCCO
viscosity [mPa·s], 101.3 kPa
Conditions | x1 = 0.0548 | x1 = 0.1155 | x1 = 0.1829 | x1 = 0.2582 | x1 = 0.3431 | x1 = 0.4393 | x1 = 0.5493 | x1 = 0.6763 | x1 = 0.8246
303 K | 1.619 | 1.637 | 1.645 | 1.657 | – | 1.688 | 1.703 | 1.72 | 1.734
308 K | 1.471 | 1.486 | 1.499 | 1.51 | 1.525 | 1.537 | 1.552 | 1.568 | 1.579
313 K | 1.326 | 1.337 | 1.351 | 1.364 | 1.372 | 1.386 | 1.403 | 1.414 | 1.432
318 K | 1.235 | 1.247 | 1.257 | 1.272 | 1.28 | 1.291 | 1.302 | 1.314 | 1.327
323 K | 1.175 | 1.188 | 1.194 | 1.205 | 1.21 | 1.219 | 1.227 | 1.235 | 1.244

Cc1ccccc1[N+](=O)[O-] + Cc1ccc(C)cc1
308.15 K, 101.33 kPa
Conditions | viscosity [mPa·s]
x2 = 0.1044 | 1.342
x2 = 0.2016 | 1.153
x2 = 0.2968 | 1.034
x2 = 0.4024 | 0.942
x2 = 0.4938 | 0.879
x2 = 0.6032 | 0.81
x2 = 0.6951 | 0.754
x2 = 0.8009 | 0.681
x2 = 0.8955 | 0.624

CCCCCCCCCCCCCCCCCCCCCCCC + CCCCCCCCCC
Conditions | viscosity [mPa·s]
313.2 K, 101.3 kPa, x2 = 0.8 | 1.48

CCCNCCC + CCCCCCCCO
viscosity [mPa·s], 101.33 kPa
Conditions | x1 = 0.0971 | x1 = 0.1988 | x1 = 0.2871 | x1 = 0.3825 | x1 = 0.4806 | x1 = 0.5852 | x1 = 0.6925 | x1 = 0.7882 | x1 = 0.8977
303.15 K | 5.165 | 4.21 | 3.462 | 2.752 | 2.135 | 1.61 | 1.202 | 0.9319 | 0.6909
313.15 K | 3.773 | 3.107 | 2.571 | 2.053 | 1.6 | 1.223 | 0.9264 | 0.7294 | 0.5547

CC1CCCCC1 + CC(C)O
viscosity [mPa·s], 100 kPa
Conditions | x1 = 0.081 | x1 = 0.1601 | x1 = 0.2401 | x1 = 0.35 | x1 = 0.44 | x1 = 0.5602 | x1 = 0.65 | x1 = 0.7401 | x1 = 0.8501 | x1 = 0.9403
293.15 K | 1.88 | 1.47 | 1.17 | 0.89 | 0.78 | 0.72 | 0.73 | 0.75 | 0.77 | 0.76
298.15 K | 1.65 | 1.33 | 1.08 | 0.87 | 0.76 | 0.71 | 0.7 | 0.7 | – | 0.71
303.15 K | – | 1.18 | 0.98 | 0.81 | 0.73 | 0.7 | 0.69 | 0.68 | 0.68 | 0.67
308.15 K | 1.26 | 1.05 | 0.89 | 0.74 | 0.67 | 0.64 | 0.63 | 0.63 | 0.64 | 0.62
313.15 K | 1.1 | 0.92 | 0.79 | 0.65 | 0.6 | 0.58 | 0.57 | 0.58 | 0.59 | 0.6
318.15 K | 0.97 | 0.82 | 0.7 | 0.6 | 0.55 | 0.54 | 0.54 | 0.55 | 0.56 | 0.55
323.15 K | 0.84 | 0.69 | 0.58 | 0.49 | 0.46 | 0.46 | 0.47 | 0.49 | 0.51 | 0.52

CCOC(=O)c1ccccc1 + COCCO
viscosity [mPa·s], 101 kPa
Conditions | x2 = 0.1045 | x2 = 0.199 | x2 = 0.2979 | x2 = 0.4016 | x2 = 0.5007 | x2 = 0.6025 | x2 = 0.6973 | x2 = 0.7982 | x2 = 0.8977
298.15 K | 1.883 | 1.824 | 1.803 | 1.757 | 1.774 | 1.752 | 1.773 | 1.761 | 1.783
303.15 K | 1.703 | 1.65 | 1.631 | 1.587 | 1.598 | 1.581 | 1.592 | 1.581 | 1.602
308.15 K | 1.55 | 1.501 | 1.48 | 1.441 | 1.448 | 1.431 | 1.439 | 1.431 | 1.444

N#CCc1ccccc1 + ClCCCl
101 kPa
Conditions | viscosity [mPa·s]
303.15 K, x1 = 0.9705 | 1.725
313.15 K, x1 = 0.648 | 1.165

CCCC[n+]1ccn(C)c1.N#C[S-] + c1ccsc1
100 kPa
Conditions | viscosity [mPa·s]
298.15 K, x1 = 0.754 | 31.95
308.15 K, x1 = 0.857 | 28.75

CCCCCl + CC(C)O
298.15 K, 101 kPa
Conditions | viscosity [mPa·s]
x2 = 0.1 | 0.438
x2 = 0.1661 | 0.468
x2 = 0.225 | 0.47
x2 = 0.2891 | 0.493
x2 = 0.35 | 0.522
x2 = 0.4295 | 0.579
x2 = 0.5105 | 0.642
x2 = 0.5479 | 0.675
x2 = 0.6603 | 0.809
x2 = 0.7645 | 1.044
x2 = 0.8538 | 1.338
x2 = 0.92 | 1.615

CCCNCCC + CCCCCCCO
viscosity [mPa·s], 101.33 kPa
Conditions | x1 = 0.0952 | x1 = 0.1932 | x1 = 0.2891 | x1 = 0.3853 | x1 = 0.5194 | x1 = 0.6089 | x1 = 0.717 | x1 = 0.8156 | x1 = 0.9054
303.15 K | 4.145 | 3.485 | 2.867 | 2.311 | 1.672 | 1.333 | 1.02 | 0.809 | 0.6553
313.15 K | 3.063 | 2.556 | 2.111 | 1.724 | 1.283 | 1.045 | 0.8136 | 0.6509 | 0.5273

CC1CCCCC1 + C1CCCCC1
303.15 K, 101 kPa
Conditions | viscosity [mPa·s]
x2 = 0.0996 | 0.6425
x2 = 0.1991 | 0.6465
x2 = 0.2949 | 0.6574
x2 = 0.3948 | 0.6697
x2 = 0.497 | 0.6849
x2 = 0.6005 | 0.7041
x2 = 0.699 | 0.7258
x2 = 0.7978 | 0.7519
x2 = 0.8955 | 0.7854

C1=CCCCC1 + C1CCCCC1
303.15 K, 101 kPa
Conditions | viscosity [mPa·s]
x1 = 0.1133 | 0.772
x1 = 0.2435 | 0.745
x1 = 0.3293 | 0.725
x1 = 0.3919 | 0.72
x1 = 0.4866 | 0.684
x1 = 0.582 | 0.678
x1 = 0.7181 | 0.654
x1 = 0.8663 | 0.62

From the CheMixHub viscosity set
